From patent publication US20090233907A1, “Pyridopyrimidine Derivatives and Their Use as PDE4 Inhibitors” (ASTRAZENECA AB, priority 2006, published 2009)

These molecules were tested against T1, recombinant Human Phosphodiesterase B2 (PDE4B2) (Homo sapiens, UniProt Q07343) (assay: Human Phosphodiesterase B2 Radiometric Assay). Settings: radiometric SPA assay, [3H]cyclic AMP 8 nM, read-out: PDE4B2 pIC50 (converted).
Type: biochemical
Protocol: Human Phosphodiesterase B2 Radiometric Assay
The assay uses recombinant Human Phosphodiesterase B2 (PDE4B2) produced in house (PrAZL0163), stored at −20° C. This assay is based on the observation that 5′AMP, the product of the reaction catalysed by PDE4, binds preferentially to yttrium silicate SPA beads (Amersham Biosciences, UK) compared to the substrate, cAMP. Compounds at the appropriate concentration were preincubated at 30 C for 30 min with an assay buffer containing 50 mM HEPES (pH 7.5), 8.3 mM MgCl2, 1.7 mM EGTA, 0.01% (w/v) Brij®35 and 0.1 μg/mL recombinant PDE4B2. The reaction was started by the addition of [3H]cyclic AMP to give a final concentration of 8 nM, and was stopped 20 minutes after the addition of the substrate by the addition of yttrium silicate SPA beads containing 18 mM Zn SO4. Bound [3H]cyclic AMP was measured using a Topcount NXT (Packard Bioscience, UK). pIC50 values (presented in Table 5) were determined using Xlfit3 curve fitting, using model 205.

T1 sequence (Q07343 1-564 isoform Q07343-2): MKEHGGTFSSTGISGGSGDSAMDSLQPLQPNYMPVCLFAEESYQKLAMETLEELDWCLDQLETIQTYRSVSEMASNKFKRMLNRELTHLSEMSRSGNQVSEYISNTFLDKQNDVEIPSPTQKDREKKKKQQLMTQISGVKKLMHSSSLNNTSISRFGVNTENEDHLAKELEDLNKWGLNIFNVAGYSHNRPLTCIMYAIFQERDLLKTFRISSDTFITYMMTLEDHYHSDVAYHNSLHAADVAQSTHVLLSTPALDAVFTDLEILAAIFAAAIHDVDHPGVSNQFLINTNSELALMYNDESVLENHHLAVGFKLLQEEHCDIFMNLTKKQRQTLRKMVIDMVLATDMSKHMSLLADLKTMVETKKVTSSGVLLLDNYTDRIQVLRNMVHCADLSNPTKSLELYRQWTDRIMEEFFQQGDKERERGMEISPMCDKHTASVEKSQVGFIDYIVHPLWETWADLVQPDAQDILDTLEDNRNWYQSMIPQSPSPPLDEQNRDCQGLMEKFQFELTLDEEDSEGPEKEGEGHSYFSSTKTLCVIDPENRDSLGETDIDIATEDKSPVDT

IC50	SMILES
0.316 nM	O=C(N[C@H]1CC[C@@H](n2c(=O)c3cc(F)cnc3n(C3CCSCC3)c2=O)CC1)C(O)c1ccc(O)cc1 (stereo partly drawn) [Example 64b, N-{cis-4-[6-fluoro-2,4-dioxo-1-(tetrahydro-2H-thiopyran-4-yl)-1,4-dihydropyrido[2,3-d]pyrimidin-3(2H)-yl]cyclohexyl}-2-hydroxy-2-(4-hydroxyphenyl)acetamide]
0.501 nM	CN(C)c1ccc(C(=O)NC2CCC(n3c(=O)c4cc(F)cnc4n(C4CCSCC4)c3=O)CC2)cc1 (centres unmarked) [Example 67, 4-dimethylamino-N-[4-(9-fluoro-2,4-dioxo-5-tetrahydrothiopyran-4-yl-3,5,7-triazabicyclo[4.4.0]deca-6,8,10-trien-3-yl)cyclohexyl]benzamide]
0.126 nM	O=C(N[C@H]1CC[C@@H](n2c(=O)c3cc(F)cnc3n(C3CCSCC3)c2=O)CC1)c1cn2cc(F)ccc2n1 [Example 41, 6-fluoro-N-{cis-4-[6-fluoro-2,4-dioxo-1-(tetrahydro-2H-thiopyran-4-yl)-1,4-dihydropyrido[2,3-d]pyrimidin-3(2H)-yl]cyclohexyl}imidazo[1,2-a]pyridine-2-carboxamide]
0.398 nM	O=C(N[C@H]1CC[C@@H](n2c(=O)c3cc(F)cnc3n(C3CCSCC3)c2=O)CC1)c1cn2c(n1)CCCC2 [Example 33, N-{cis-4-[6-fluoro-2,4-dioxo-1-(tetrahydro-2H-thiopyran-4-yl)-1,4-dihydropyrido[2,3-d]pyrimidin-3(2H)-yl]cyclohexyl}-5,6,7,8-tetrahydroimidazo[1,2-a]pyridine-2-carboxamide]

The molecules below were run against T1, recombinant Human Phosphodiesterase B2 (PDE4B2) (assay: Human Phosphodiesterase B2 Alpha Screen Assay). Settings: Alpha Screen cAMP assay.
Type: biochemical
Protocol: Human Phosphodiesterase B2 Alpha Screen Assay
The assay uses recombinant Human Phosphodiesterase B2 (PDE4B2) produced in house (PrAZL0133), stored at −20° C. The substrate uses cAMP, part of the Alpha Screen cAMP kit (Perkin Elmer, Cat# 6760625M), stored at 4° C. The Alpha Screen kit also includes biotinylated cAMP, acceptor and donor beads.
The assay additions were as follows: Test compounds and controls were added to white 384-well flat-bottom plates (Greiner, Cat# 781075), 0.2 μl in 100% DMSO, followed by 10 μl PDE4B2 in reaction buffer. The reaction buffer constitution was: 50 mM Tris (pH 7.5), 8.3 mM MgCl2, 1.7 mM EGTA and 0.01% (w/v) Brij®35. The enzyme and the compounds were incubated at room temperature for 15 minutes. Then 10 μl cAMP in reaction buffer was added. The assay was stopped after 60 minutes incubation at room temperature by adding 10 μl acceptor beads in detection buffer with 40 mM EDTA. The detection buffer constitution was: 5 mM Tris (pH 7.5), 0.1% (w/v) BSA and 0.1% (v/v) Tween 20. This addition followed by an addition of 10 μl donor beads in detection buffer, with biotinylated cAMP. The plates were then incubated, dark at room temperature, for 5 hours followed by measurement on a Fusion™-α analyser. IC50 values (presented in Table 4) were determined using Xlfit curve fitting using model 205.

SMILES	IC50
O=C(N[C@H]1CC[C@@H](n2c(=O)c3cc(F)cnc3n(C3CCSCC3)c2=O)CC1)c1n[nH]c2ccccc12 [Example 5, N-{cis-4-[6-fluoro-2,4-dioxo-1-(tetrahydro-2H-thiopyran-4-yl)-1,4-dihydropyrido[2,3-d]pyrimidin-3(2H)-yl]cyclohexyl}-1H-indazole-3-carboxamide]	1.35 nM
O=C(N[C@H]1CC[C@@H](n2c(=O)c3cc(F)cnc3n(C3CCSCC3)c2=O)CC1)[C@H](O)C1CCCCC1 [Example 12, (2R)-2-cyclohexyl-N-{cis-4-[6-fluoro-2,4-dioxo-1-(tetrahydro-2H-thiopyran-4-yl)-1,4-dihydropyrido[2,3-d]pyrimidin-3(2H)-yl]cyclohexyl}-2-hydroxyacetamide]	0.887 nM
O=C(N[C@H]1CC[C@@H](n2c(=O)c3cc(F)cnc3n(C3CCSCC3)c2=O)CC1)c1cccc2cccnc12 [Example 3, N-{cis-4-[6-fluoro-2,4-dioxo-1-(tetrahydro-2H-thiopyran-4-yl)-1,4-dihydropyrido[2,3-d]pyrimidin-3(2H)-yl]cyclohexyl}quinoline-8-carboxamide]	1.31 nM
O=C(CCc1cccc(O)c1)N[C@H]1CC[C@@H](n2c(=O)c3cc(F)cnc3n(C3CCSCC3)c2=O)CC1 [Example 19, N-{cis-4-[6-fluoro-2,4-dioxo-1-(tetrahydro-2H-thiopyran-4-yl)-1,4-dihydropyrido[2,3-d]pyrimidin-3(2H)-yl]cyclohexyl}-3-(3-hydroxyphenyl)propanamide]	2.53 nM
O=C(N[C@H]1CC[C@@H](n2c(=O)c3cc(F)cnc3n(C3CCSC3)c2=O)CC1)c1cn2ccccc2n1 (relative stereo) [Example 28, N-{cis-4-[6-fluoro-2,4-dioxo-1-(tetrahydro-3-thienyl)-1,4-dihydropyrido[2,3-d]pyrimidin-3(2H)-yl]cyclohexyl}imidazo[1,2-a]pyridine-2-carboxamide]	0.97 nM
O=C(N[C@H]1CC[C@@H](n2c(=O)c3cc(F)cnc3n(C3CCSCC3)c2=O)CC1)c1cccn2ccnc12 [Example 25, N-{cis-4-[6-fluoro-2,4-dioxo-1-(tetrahydro-2H-thiopyran-4-yl)-1,4-dihydropyrido[2,3-d]pyrimidin-3(2H)-yl]cyclohexyl}imidazo[1,2-a]pyridine-8-carboxamide]	5.59 nM

Continued, values first:

IC50	SMILES
1.1 nM	O=C(N[C@H]1CC[C@@H](n2c(=O)c3cc(F)cnc3n(C3CCSCC3)c2=O)CC1)c1cn2ccccc2n1 [Example 2, N-{cis-4-[6-Fluoro-2,4-dioxo-1-(tetrahydro-2H-thiopyran-4-yl)-1,4-dihydropyrido[2,3-d]pyrimidin-3(2H)-yl]cyclohexyl}imidazo[1,2-a]pyridine-2-carboxamide]
2.72 nM	O=C(N[C@H]1CC[C@@H](n2c(=O)c3cc(F)cnc3n(C3CCSCC3)c2=O)CC1)c1ccccc1 [Example 23, N-{cis-4-[6-fluoro-2,4-dioxo-1-(tetrahydro-2H-thiopyran-4-yl)-1,4-dihydropyrido[2,3-d]pyrimidin-3(2H)-yl]cyclohexyl}benzamide]
1.12 nM	Cc1ccc(C(=O)N[C@H]2CC[C@@H](n3c(=O)c4cc(F)cnc4n(C4CCSCC4)c3=O)CC2)cc1O [Example 10, N-{cis-4-[6-fluoro-2,4-dioxo-1-(tetrahydro-2H-thiopyran-4-yl)-1,4-dihydropyrido[2,3-d]pyrimidin-3(2H)-yl]cyclohexyl}-3-hydroxy-4-methylbenzamide]
5.9 nM	O=C(N[C@H]1CC[C@@H](n2c(=O)c3cc(F)cnc3n(C3CCSCC3)c2=O)CC1)c1ncccc1O [Example 20, N-{cis-4-[6-fluoro-2,4-dioxo-1-(tetrahydro-2H-thiopyran-4-yl)-1,4-dihydropyrido[2,3-d]pyrimidin-3(2H)-yl]cyclohexyl}-3-hydroxypyridine-2-carboxamide]
